Drawing on patent US20110046147A1, “17BETA-HYDROXYSTEROID DEHYDROGENASE TYPE 1 INHIBITORS FOR THE TREATMENT OF HORMONE-RELATED DISEASES” (UNIVERSITAT DES SAARLANDES, priority 2007, published 2011), this text covers IC50 and Papp for two compounds.

Broadly, the IC50 is the point on the concentration scale where inhibition reaches its midpoint.

The target of one data set is T1, CYP2C9 (Homo sapiens, UniProt P11712).
T1 construct: purchased Becton Dickinson GmbH (Heidelberg)
Kind of data set: Inhibition of hepatic CYP enzymes: CYP2C9. Particulars: read-out: CYP2C9 IC50 (mean ± SD). The class given is biochemical. An excerpt: (§1) Drug interactions (inhibition of hepatic CYP enzymes): The inhibition of six human hepatic cytochrome P450 enzymes by selected compounds was examined by means of the kit supplied by Becton Dickinson GmbH (Heidelberg).

The target in a further data set is T2, CYP1A2 (Homo sapiens, UniProt P05177).
T2 construct: purchased Becton Dickinson GmbH (Heidelberg)
T2 sequence (P05177 1-516): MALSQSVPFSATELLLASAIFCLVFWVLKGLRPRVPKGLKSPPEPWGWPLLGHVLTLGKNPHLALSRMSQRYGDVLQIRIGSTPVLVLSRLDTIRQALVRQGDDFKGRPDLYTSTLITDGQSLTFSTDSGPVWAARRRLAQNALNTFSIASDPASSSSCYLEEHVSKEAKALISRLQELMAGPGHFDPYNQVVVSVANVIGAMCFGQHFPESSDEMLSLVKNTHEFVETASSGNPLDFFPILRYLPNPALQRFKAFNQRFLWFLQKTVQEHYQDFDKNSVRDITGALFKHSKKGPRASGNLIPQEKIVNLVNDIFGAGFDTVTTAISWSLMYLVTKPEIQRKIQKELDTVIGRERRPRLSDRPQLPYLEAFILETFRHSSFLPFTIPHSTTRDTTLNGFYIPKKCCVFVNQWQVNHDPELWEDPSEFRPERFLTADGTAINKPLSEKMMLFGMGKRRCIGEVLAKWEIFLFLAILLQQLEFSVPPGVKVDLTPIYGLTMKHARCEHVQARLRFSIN
Kind of data set: Inhibition of hepatic CYP enzymes: CYP1A2. The class given is biochemical. Particulars: read-out: CYP1A2 IC50 (mean ± SD).
From the text: as §1

A further data set concerns the target T3, CYP2B6 (Homo sapiens, UniProt P20813).
T3 construct: purchased Becton Dickinson GmbH (Heidelberg)
T3 sequence (P20813 1-491): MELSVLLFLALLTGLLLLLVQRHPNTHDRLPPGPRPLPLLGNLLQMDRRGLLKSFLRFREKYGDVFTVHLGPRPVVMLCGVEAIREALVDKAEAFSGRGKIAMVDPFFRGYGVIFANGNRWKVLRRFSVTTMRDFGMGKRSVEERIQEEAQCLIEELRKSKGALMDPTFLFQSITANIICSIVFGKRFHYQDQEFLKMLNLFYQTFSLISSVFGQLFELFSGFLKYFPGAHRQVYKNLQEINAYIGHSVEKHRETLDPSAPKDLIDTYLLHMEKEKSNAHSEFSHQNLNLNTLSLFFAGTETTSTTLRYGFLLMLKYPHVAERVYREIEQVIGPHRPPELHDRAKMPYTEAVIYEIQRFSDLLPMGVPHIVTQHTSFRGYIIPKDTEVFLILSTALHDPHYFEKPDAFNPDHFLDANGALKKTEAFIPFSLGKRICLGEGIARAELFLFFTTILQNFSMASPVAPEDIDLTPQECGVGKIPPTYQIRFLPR
Description: Inhibition of hepatic CYP enzymes: CYP2B6. It is filed as biochemical. Particulars: read-out: CYP2B6 IC50 (mean ± SD).
From the text: as §1

Another data set is described as follows: CaCo2 transport assay. The class given is in vitro ADME. As to conditions: human, Caco-2; 50 μM in donor compartment; read-out: Papp [cm/sec ± rel. SD]. On the procedure: Performance of selected compounds in a CaCo2 assay: Caco-2 cell culture and transport experiments were performed according to Yee (Yee, S., Pharm. Res., 14(6): 763-766 (1997)), but slight modifications were introduced. The cultivation times were reduced from 21 to 10 days by increasing the sowing density from 6.3·10^4 to 1.65·10^5 cells per well. […] The initial concentration of the compounds in the donor compartment was 50 μM (in buffer with 1% ethanol or DMSO). Samples were taken from the acceptor side after 60, 120 and 180 min and from the donor side after 0 and 180 min. For glycoprotein P (P-gp) studies, bidirectional experiments were performed. The absorptive and secretory permeabilities (Papp (a-b) and Papp (b-a)) were determined. Thus, erythromycin was used as a substrate, and verapamil was used as an inhibitor of P-gp. Each experiment was performed in triplicate. The integrity of the monolayer was determined by means of TEER (transepithelial electric resistance) and the permeability for each assay was determined using Lucifer Yellow. All samples of the CaCo-2 transport experiments were analyzed by means of LC/MS/MS after dilution with buffer (1:1 with 2% acetic acid). The apparent permeability coefficient (Papp) was calculated by means of the formula given below, where dQ/dt represents the recovery rate of the mass in the acceptor compartment, A represents the surface area of the transwell membrane, and c0 represents the initial concentration in the donor compartment.
On the technique in general: Caco-2 monolayers are a common model of the intestinal barrier.

A further data set addresses T4, 17β-HSD2 (Homo sapiens, UniProt P37059).
T4 construct: from tissue; host or cells: human placenta, microsome fraction
T4 sequence (P37059 1-387): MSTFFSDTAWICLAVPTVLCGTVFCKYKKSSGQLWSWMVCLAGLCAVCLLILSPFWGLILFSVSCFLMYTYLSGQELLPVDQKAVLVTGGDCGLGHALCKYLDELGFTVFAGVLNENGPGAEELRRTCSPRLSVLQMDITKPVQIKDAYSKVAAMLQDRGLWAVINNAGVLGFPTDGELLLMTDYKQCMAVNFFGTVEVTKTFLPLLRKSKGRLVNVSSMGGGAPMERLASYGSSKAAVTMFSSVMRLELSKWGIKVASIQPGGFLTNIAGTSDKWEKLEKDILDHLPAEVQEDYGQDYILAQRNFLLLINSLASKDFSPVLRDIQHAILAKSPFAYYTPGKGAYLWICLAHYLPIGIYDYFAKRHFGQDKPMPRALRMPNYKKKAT
Kind of data set: Inhibition of 17β-HSD2 (estradiol to estrone, radio-HPLC). It is filed as biochemical. Particulars: human placenta microsome fraction, 500 nM estradiol, NAD+ 1500 μM.

T1 sequence (P11712 whole entry): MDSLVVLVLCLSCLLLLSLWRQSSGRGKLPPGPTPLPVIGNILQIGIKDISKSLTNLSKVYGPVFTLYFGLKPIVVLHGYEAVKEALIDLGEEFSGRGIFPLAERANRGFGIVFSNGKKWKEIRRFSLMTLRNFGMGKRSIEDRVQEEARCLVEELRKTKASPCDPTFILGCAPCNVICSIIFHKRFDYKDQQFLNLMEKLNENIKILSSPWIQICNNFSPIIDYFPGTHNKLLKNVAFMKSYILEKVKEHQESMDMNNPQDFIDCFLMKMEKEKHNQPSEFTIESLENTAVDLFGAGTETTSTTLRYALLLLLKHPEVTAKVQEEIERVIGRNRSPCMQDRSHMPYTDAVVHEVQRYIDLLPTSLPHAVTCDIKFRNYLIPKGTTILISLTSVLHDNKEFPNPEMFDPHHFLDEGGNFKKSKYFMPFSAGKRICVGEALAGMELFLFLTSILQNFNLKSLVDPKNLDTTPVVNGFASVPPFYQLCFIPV

As to `Oc1ccc(-c2ccsc2-c2cccc(O)c2)cc1` [Compound 28, 3-[3-(4-Hydroxyphenyl)-2-thienyl]phenol], the IC50 at CYP2C9 amounted to 2980 ± 20 nM; on CYP1A2, 5.35 ± 0.24 µM; on CYP2B6, 18.8 ± 2.05 µM; at 17β-HSD2 it was 1800 nM. Further, in “CaCo2 transport assay”, the Papp at 180 min, 50 μM worked out at 11.5 ×10⁻⁶ cm/s.
Consider `Oc1cccc(-c2ccc(-c3cccc(O)c3)cc2)c1` [Compound 42, [1,1′,4′,1″]Terphenyl-3,3′-diol], for which the IC50 was determined as 1940 ± 100 nM at CYP2C9, 17.2 ± 1.16 µM at CYP1A2, 7.68 ± 0.92 µM on CYP2B6 and 2300 nM against 17β-HSD2.
